Results as given in patent publication US9050345B2, “Pyrrolotriazines as potassium ion channel inhibitors” (BRISTOL-MYERS SQUIBB COMPANY, priority 2013, dated 2015).

target: T1, human KV 1.5 (IKur) (Homo sapiens, UniProt P22460); experiment: block of IKur current in patch clamped L-929 cells expressing human Kv1.5; format: cell-based; details: 0.3 μM; patch clamped mammalian L-929 cells stably expressing human Kv1.5
T1 construct: expressed in transfected cells
T1 sequence (P22460 whole entry): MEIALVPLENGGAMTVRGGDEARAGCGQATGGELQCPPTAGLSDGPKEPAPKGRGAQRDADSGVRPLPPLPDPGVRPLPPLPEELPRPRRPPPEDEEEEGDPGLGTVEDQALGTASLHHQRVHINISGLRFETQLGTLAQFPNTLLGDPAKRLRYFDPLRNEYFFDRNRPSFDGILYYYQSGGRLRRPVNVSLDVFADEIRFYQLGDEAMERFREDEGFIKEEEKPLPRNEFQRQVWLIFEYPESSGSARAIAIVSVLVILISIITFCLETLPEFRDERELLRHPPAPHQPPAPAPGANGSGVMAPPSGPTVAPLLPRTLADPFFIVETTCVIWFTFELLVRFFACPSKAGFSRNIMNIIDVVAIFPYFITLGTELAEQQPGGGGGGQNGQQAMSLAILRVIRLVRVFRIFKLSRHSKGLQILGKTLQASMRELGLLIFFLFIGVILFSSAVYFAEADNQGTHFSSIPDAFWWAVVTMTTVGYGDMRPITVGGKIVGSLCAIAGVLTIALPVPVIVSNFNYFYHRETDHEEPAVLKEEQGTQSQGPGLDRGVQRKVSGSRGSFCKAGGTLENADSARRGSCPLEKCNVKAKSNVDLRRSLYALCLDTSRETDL

| KV1_5% Inh L929 @0.3 μM | Molecule |
| --- | --- |
| 98.89% | NS(=O)(=O)c1cncc(-c2nc(NCC3CCCCO3)c3c(-c4ccccc4)ccn3n2)c1 (stereo not drawn) [Example 102, 5-(5-phenyl-4-((tetrahydro-2H-pyran-2-yl)methylamino)pyrrolo[1,2-f][1,2,4]triazin-2-yl)pyridine-3-sulfonamide] |
| 38.74% | 1-(1-(4- (benzylamino)-5- phenylpyrrolo [1,2-f][1,2,4] triazine-2-carbonyl) piperidin-4-yl)-1H- benzo[d]imidazol- 2(3H)-one [Example 121] |
| 96.86% | O=C(NCC(O)CO)c1cncc(-c2nc(NCc3ccccc3)c3c(-c4ccccc4)ccn3n2)c1 (stereo not drawn) [Example 97, 5-(4-(benzylamino)-5-phenylpyrrolo [1,2-f][1,2,4]triazin-2-yl)-N-(2,3-dihydroxypropyl) nicotinamide] |
| 47.37% | OCC(O)c1nc(NCc2ccccc2)c2c(-c3ccccc3)ccn2n1 (stereo not drawn) [Example 18, 1-(4-(Benzylamino)-5-phenylpyrrolo[1,2-f][1,2,4]triazin-2-yl)ethane-1,2-diol] |
| 95.70% | CC(Nc1nc(-c2cncc(S(N)(=O)=O)c2)nn2ccc(-c3ccccc3)c12)c1ccc(F)cc1 (stereo not drawn) [Example 77, 5-(4-(1-(4-fluorophenyl)ethylamino)-5-phenylpyrrolo[1,2-f] [1,2,4]triazin-2-yl)pyridine-3-sulfonamide] |

same assay, conditions: L929, 0.3 μM; patch clamped mammalian L-929 cells stably expressing human Kv1.5; read-out: KV1_5% Inh L929 @0.3 μM

| inhibition at 0.3 µM | Molecule |
| --- | --- |
| 84.9% | NS(=O)(=O)c1cc(-c2nc(NCc3ccccn3)c3c(-c4ccccc4)ccn3n2)cnc1O [Example 49, 2-hydroxy-5-(5-phenyl-4-(pyridin-2-ylmethylamino)pyrrolo[1,2-f][1,2,4]triazin-2-yl)pyridine-3-sulfonamide] |
| 90.1% | COC(=O)C(CS(N)(=O)=O)NC(=O)c1cncc(-c2nc(NCc3ccccc3)c3c(-c4ccccc4)ccn3n2)c1 (stereo not drawn) [Example 45, Methyl 2-(5-(4-(benzylamino)-5-phenylpyrrolo[2,1-f][1,2,4]triazin-2-yl)nicotinamido)-3-sulfamoylpropanoate] |
| 67.5% | O=C(NC[C@H](O)c1ccccc1)c1nc(NCc2ccccc2)c2c(-c3ccccc3)ccn2n1 [Example 119, (R)-4-(benzylamino)-N-(2-hydroxy-2-phenylethyl)-5-phenylpyrrolo [1,2-f][1,2,4] triazine-2-carboxamide] |
| 91% | O=C(O)c1cccc(-c2nc(NCc3ccccn3)c3c(-c4ccccc4)ccn3n2)c1 [Example 87, 3-(5-phenyl-4-(pyridin-2-ylmethylamino)pyrrolo [1,2-f][1,2,4]triazin-2-yl)benzoic acid] |
| 90.2% | CC(=O)Nc1ccc(-c2nc(NCc3ccccn3)c3c(-c4ccccc4)ccn3n2)cn1 [Example 54, N-(5-(5-phenyl-4-(pyridin-2-ylmethylamino)pyrrolo[1,2-f][1,2,4]triazin-2-yl)pyridin-2-yl)acetamide] |
| 92.2% | O=C(O)/C=C/c1cncc(-c2nc(NCc3ccccc3)c3c(-c4ccccc4)ccn3n2)c1 [Example 99, (E)-3-(5-(4-(benzylamino)-5-phenylpyrrolo [1,2-f][1,2,4]triazin-2-yl)pyridin-3-yl)acrylic acid] |
| 96.1% | CC(C)CS(=O)(=O)Nc1cncc(-c2nc(NCc3ccccn3)c3c(-c4ccccc4)ccn3n2)c1 [Example 58, 2-methyl-N-(5-(5-phenyl-4-(pyridin-2-ylmethylamino)pyrrolo [1,2-f][1,2,4]triazin-2-yl)pyridin-3-yl) propane-1-sulfonamide] |
| 89.8% | NS(=O)(=O)c1cncc(-c2nc(NC(c3ccccc3)C(F)(F)F)c3c(-c4ccccc4)ccn3n2)c1 (stereo not drawn) [Example 83, 5-(5-phenyl-4-(2,2,2-trifluoro-1-phenylethylamino)pyrrolo [1,2-f][1,2,4]triazin-2-yl)pyridine-3-sulfonamide] |
| 99.2% | Nc1ccccc1CNc1nc(-c2cncc(S(N)(=O)=O)c2)nn2ccc(-c3ccccc3)c12 [Example 178, 5-(4-((2-aminobenzyl)amino)-5-phenylpyrrolo [2,1-f][1,2,4]triazin-2-yl)pyridine-3-sulfonamide] |
| 90% | NS(=O)(=O)c1cncc(-c2nc(NCc3ccncc3)c3c(-c4ccccc4)ccn3n2)c1 [Example 159] |
| 86.8% | N#Cc1ccccc1CNc1nc(-c2cncc(S(N)(=O)=O)c2)nn2ccc(-c3ccccc3)c12 [Example 168, 5-(4-((2-cyanobenzyl)amino)-5-phenylpyrrolo [2,1-f][1,2,4]triazin-2-yl)pyridine-3-sulfonamide] |
| 97.3% | NS(=O)(=O)c1cncc(-c2nc(NCc3ncccn3)c3c(-c4ccccc4)ccn3n2)c1 [Example 152, 5-(5-phenyl-4-((pyrimidin-2-ylmethyl)amino)pyrrolo[2,1-f][1,2,4]triazin-2-yl)pyridine-3-sulfonamide] |
| 95.5% | NS(=O)(=O)c1cncc(-c2nc(NCc3ccccc3)c3c(-c4ccccc4)ccn3n2)n1 [Example 15, 6-(4-(Benzylamino)-5-phenylpyrrolo[1,2-f][1,2,4]triazin-2-yl)pyrazine-2-sulfonamide] |
| 88.4% | CC(=O)Nc1ccc(NC(=O)c2nc(NCc3ccccc3)c3c(-c4ccccc4)ccn3n2)cc1 [Example 113, N-(4-acetamidophenyl)-4-(benzylamino)-5-phenylpyrrolo[1,2-f] [1,2,4] triazine-2-carboxamide] |
| 97.9% | Nc1cncc(-c2nc(NCc3cnccn3)c3c(-c4ccccc4)ccn3n2)c1 [Example 161, 2-(5-aminopyridin-3-yl)-5-phenyl-N-(pyrazin-2-ylmethyl)pyrrolo[1,2-f] [1,2,4]triazin-4-amine] |
| 99.3% | Cc1nc(CNc2nc(-c3cncc(S(N)(=O)=O)c3)nn3ccc(-c4ccccc4)c23)cs1 [Example 32, 5-(4-((2-Methylthiazol-4-yl)methylamino)-5-phenylpyrrolo[1,2-f][1,2,4]triazin-2-yl)pyridine-3-sulfonamide] |

| inhibition at 0.3 µM | Molecule |
| --- | --- |
| 95.8% | COc1ncc(-c2nc(NCc3ccccc3)c3c(-c4ccccc4)ccn3n2)cc1S(N)(=O)=O [Example 94, 5-(4-(benzylamino)-5-phenylpyrrolo [1,2-f][1,2,4]triazin-2-yl)-2-methoxypyridine-3-sulfonamide] |
| 86% | O=C(O)c1cncc(-c2nc(NCc3ccccn3)c3c(-c4ccccc4)ccn3n2)c1 [Example 10, 5-(5-Phenyl-4-(pyridin-2-ylmethylamino)pyrrolo[1,2-f][1,2,4]triazin-2-yl)nicotinic acid] |
| 95.8% | NS(=O)(=O)c1cccc(-c2nc(NCc3ccccc3)c3c(-c4ccccc4)ccn3n2)c1 [Example 149, 3-(4-(benzylamino)-5-phenylpyrrolo[1,2-f] [1,2,4]triazin-2-yl)benzenesulfonamide] |
| 55.3% | O=C(O)CCNC(=O)c1cncc(-c2nc(NCc3ccccc3)c3c(-c4ccccc4)ccn3n2)c1 [Example 98, 3-(5-(4-(benzylamino)-5-phenylpyrrolo [1,2-f][1,2,4]triazin-2-yl)nicotinamido) propanoic acid] |
| 98.6% | N#C[C@@H]1C[C@H]1c1nc(NCc2ccccn2)c2c(-c3ccccc3)ccn2n1 (racemic) [Example 43, (±)-2-(5-Phenyl-4-(pyridin-2-ylmethylamino)pyrrolo[1,2-f][1,2,4]triazin-2-yl)cyclopropanecarbonitrile] |
| 40.9% | OCC(O)c1nc(NCc2ccccc2)c2c(-c3ccccc3)ccn2n1 (stereo not drawn) [Example 18, 1-(4-(Benzylamino)-5-phenylpyrrolo[1,2-f][1,2,4]triazin-2-yl)ethane-1,2-diol] |
| 96% | COC(=O)Nc1ccccc1CNc1nc(-c2cncc(S(N)(=O)=O)c2)nn2ccc(-c3ccccc3)c12 [Example 181, methyl (2-(((5-phenyl-2-(5-sulfamoylpyridin-3-yl)pyrrolo[2,1-f][1,2,4]triazin-4-yl)amino)methyl)phenyl)carbamate] |
| 63.5% | OCC(CO)c1cncc(-c2nc(NCc3ccccc3)c3c(-c4ccccc4)ccn3n2)c1 [Example 24, 2-(5-(4-(Benzylamino)-5-phenylpyrrolo[1,2-f][1,2,4]triazin-2-yl)pyridin-3-yl)propane-1,3-diol] |
| 90% | O=S(=O)(CC(F)(F)F)Nc1cncc(-c2nc(NCc3ccccn3)c3c(-c4ccccc4)ccn3n2)c1 [Example 61, 2,2,2-trifluoro-N-(5-(5-phenyl-4-(pyridin-2-ylmethylamino)pyrrolo [1,2-f][1,2,4]triazin-2-yl)pyridin-3-yl)ethanesulfonamide] |
| 98.7% | NS(=O)(=O)c1cncc(-c2nc(NCc3ncccc3F)c3c(-c4ccccc4F)ccn3n2)c1 [Example 173, 5-(5-(2-fluorophenyl)-4-(((3-fluoropyridin-2-yl)methyl)amino)pyrrolo [2,1-f][1,2,4]triazin-2-yl)pyridine-3-sulfonamide] |
| 62.5% | NS(=O)(=O)c1cncc(-c2nc(NCC3(O)CCCCC3)c3c(-c4ccccc4)ccn3n2)c1 [Example 145, 5-(4-((1-hydroxycyclohexyl)methylamino)-5-phenylpyrrolo [1,2-f][1,2,4]triazin-2-yl)pyridine-3-sulfonamide] |
| 30.2% | NS(=O)(=O)c1cncc(-c2nc(NCCN3CCOCC3)c3c(-c4ccccc4)ccn3n2)c1 [Example 155, 5-(4-((2-morpholinoethyl)amino)-5-phenylpyrrolo [2,1-f][1,2,4]triazin-2-yl)pyridine-3-sulfonamide] |
| 97.6% | CC(C)S(=O)(=O)Nc1cncc(-c2nc(NCc3ccccn3)c3c(-c4ccccc4)ccn3n2)c1 [Example 64, N-(5-(5-phenyl-4-(pyridin-2-ylmethylamino)pyrrolo[1,2-f][1,2,4]triazin-2-yl)pyridin-3-yl)propane-2-sulfonamide] |
| 89.1% | Cc1ncc(-c2nc(NCc3ccccn3)c3c(-c4ccccc4)ccn3n2)cc1N [Example 71, 2-(5-amino-6-methylpyridin-3-yl)-5-phenyl-N-(pyridin-2-ylmethyl)pyrrolo[1,2-f] [1,2,4]triazin-4-amine] |
| 89.5% | NS(=O)(=O)c1cncc(-c2nc(NCc3cnccn3)c3c(-c4ccccc4)ccn3n2)n1 [Example 154, 6-(5-phenyl-4-((pyrazin-2-ylmethyl)amino)pyrrolo [2,1-f][1,2,4]triazin-2-yl)pyrazine-2-sulfonamide] |
